Assay results published in patent publication US20250179531A1, “COMPOSITIONS AND METHODS FOR HOMOLOGY-DIRECTED REPAIR GENE MODIFICATION” (VOR BIOPHARMA INC., priority 2022, published 2025).

What was measured:
Format in all cases: cell-based, human
[1] = test system: T cells; assay: T cell viability after electroporation and addition of NHEJ modulators; conditions: NU7441 1 μM, SCR7 5 μM, and/or SR1 5 μM in media 24 hours post-electroporation
[2] = test system: RAB11a locus; assay: Flow cytometry of EGFP reporter from capped dsODN integrated at RAB11a in T cells; conditions: 3 μg Cas9, 3 μg RAB11a sgRNA, 1 μg capped dsODN; NU7441 1 μM, SCR7 5 μM, and/or SR1 5 μM in media 24 hours post-electroporation
Excerpt: Two respective capped, dsODNs were designed comprising an EGFP reporter and homology arms to direct integration at either the AAVS1 or RAB11a loci in T cells (FIG. 16A-16B). T cells were electroporated with dsODN and Cas9 RNP as described herein. Flow cytometry analyses were used to confirm EGFP expression in electroporated T cells. Approximately 20% of cells electroporated with capped, AAVS1 dsODN and 38% of cells electroporated with capped, RAB11a dsODN were GFP positive (FIG. 17A).

[3] = test system: CCR5 gene; assay: ICE analysis of sequencing data, Pvu1 site insertion into CCR5 in CD34+ cells; conditions: for HDR-mediated editing efficiency (promoting HDR): CD34+ cells in SCGM with hSCF, FLT3-L, TPO, added to RNP and ssODN, FIG. 4A; for efficiency of HDR in CD34+ cells: SR1 and UM171, in the presence or in the absence of IL-6
Procedure: The presence of the Pvu1 restriction site in the CCR5 locus was also detected by sequencing. Sequencing data was analyzed via inference of CRISPR/Cas9 (ICE) software to quantify the percent of insertion of the 6 nucleotide Pvu1 site.
To determine conditions that would enhance HDR-mediated editing efficiency, the role of media conditions was assessed. CD34+ cells were cultured in stromal cell growth media (SCGM) supplemented with human stem cell factor (hSCF), Fms-like tyrosine kinase 3 Ligand (FLT3-L), and thrombopoietin (TPO) to promote cell differentiation and proliferation. Using ICE analysis of sequencing data to detect Pvu1 restriction site insertion into the CCR5 gene of CD34+ cells, cells were electroporated with DNA repair modulators to skew repair pathway utilization toward HDR following Cas9 cleavage in combination with cell expansion compounds Interleukin-6 (IL6), StemRegenin 1 (SR1), and UM171 in addition to RNP and ssODN. DNA repair modulators investigated included SCR7 (a ligase IV inhibitor), NU7441 (a DNA-PK inhibitor), Rucaparib (a PARP inhibitor), and RS-1 (an HDR enhancer).

[4] = test system: GBA gene; assay: Editing of the GBA gene in CD34+ cells, ICE analysis of sequencing data
Excerpt: CD34+ cells were electroporated with RNP comprising the designed sgRNAs and with the designed ssODNs. Cells were screened by ICE analysis of sequencing data.
To optimize HDR-mediated editing of the GBA gene loci associated with Gaucher disease, ssODN candidates were screened for their ability to promote high editing efficiencies. Four ssODNs (ssODN1-4) comprising a sequence with a modification to generate the N409S mutation in exon 9 of the GBA gene and two ssODNs (ssODN5 and ssODN6) comprising a sequence with a modification to generate the L483P mutation in exon 10 of the GBA gene were screened. CD34+ cells were electroporated with different combinations of RNPs and ssODNs that corresponded to their respective target sequences, as described above, grown for 2-3 days, and then analyzed for cell viability and by sequencing (FIG. 10A).

With O=c1cc(N2CCOCC2)oc2c(-c3cccc4c3sc3ccccc34)cccc12 [NU7441] the T cell viability [1] was “reduced”, the “increase in GFP expression” value [2] was “approximately 10%” and the “HDR-mediated editing efficiency (promoting HDR)” value (from here on “HDR-mediated editing efficiency”) [3] was “no significant advantage”.

For O=C(Nc1ccc(Br)cc1)c1ccc(Br)c(S(=O)(=O)NCc2ccccc2)c1 [RS-1], the “HDR-mediated editing efficiency” value [3] was “no significant advantage”.

CNCc1ccc(-c2[nH]c3cc(F)cc4c3c2CCNC4=O)cc1 [Rucaparib] was tested, and the “HDR-mediated editing efficiency” value [3] was “no significant advantage”.

In the case of O=c1[nH]c(=S)[nH]c(N=Cc2ccccc2)c1N=Cc1ccccc1 [SCR7], the “increase in GFP expression” value [2] was “approximately 10%” and the “HDR-mediated editing efficiency” value [3] was “no significant advantage”.

CC(C)n1cnc2c(NCCc3ccc(O)cc3)nc(-c3csc4ccccc34)nc21 [SR1, StemRegenin 1] was tested, and the T cell viability [1] was “reduced”, the “increase in GFP expression” value [2] was “approximately 10%” and the “HDR-mediated editing efficiency” value [3] was “improved”. The “efficiency of HDR in CD34+ cells” value [3] was “significantly increase”.

In the case of Cn1nnc(-c2ccc3c(c2)[nH]c2nc(Cc4ccccc4)nc(NC4CCC(N)CC4)c23)n1 (stereo not drawn) [UM171], the “HDR-mediated editing efficiency” value [3] was “improved” and the “efficiency of HDR in CD34+ cells” value [3] was “significantly increase”.

With Interleukin-6 [IL6] the “HDR-mediated editing efficiency” value [3] was “improved”, the overall editing efficiency ([3]; presence or absence of IL6 in CD34+ cell media, FIG. 4B) was “did not significantly affect” and the HDR ([3]; presence or absence of IL6 in CD34+ cell media, FIG. 4C) was “did not significantly affect”.

“SG1: Cas9 sgRNA to human GBA, position 1226; targeting domain ACAUGGUACAGGAGGUUCUA (SEQ ID NO: 3) (as printed in the source, key not given here)” was tested, and the “editing efficiency of exon 9 of the GBA gene” value [4] was “high editing efficiency”.

For “SG2: Cas9 sgRNA to human GBA, position 1226; targeting domain CACAUGGUACAGGAGGUUCU (SEQ ID NO: 6) (as printed in the source, key not given here)”, the “editing efficiency of exon 9 of the GBA gene” value [4] was “high editing efficiency”.

With “SG4: Cas9 sgRNA to human GBA, position 1226; targeting domain CUAGAACCUCCUGUACCAUG (SEQ ID NO: 12) (as printed in the source, key not given here)” the “editing efficiency of exon 9 of the GBA gene” value [4] was “high editing efficiency”.

In the case of “SG6: Cas9 sgRNA to human GBA, position 1448; targeting domain UGCCAGUCAGAAGAACGACC (SEQ ID NO: 18) (as printed in the source, key not given here)”, the “editing efficiency of exon 10 of the GBA gene” value [4] was “high editing efficiency”.

For “SG7: Cas9 sgRNA to human GBA, position 1448; targeting domain GCAUCAGUGCCACUGCGUCC (SEQ ID NO: 21) (as printed in the source, key not given here)”, the “editing efficiency of exon 10 of the GBA gene” value [4] was “high editing efficiency”.
